Data published in US20260103465A1, “GLYCOGEN SYNTHASE KINASE 3 INHIBITORS AND USES THEREOF” (The Broad Institute, Inc., priority 2023, published 2026).
Read-outs that look alike come from different tables or passages of the source.

Columns and labels:
[1] = target: T1, GSK3a (GST-full length GSK3a) (Homo sapiens, UniProt P49840); assay: GSK3a TR-FRET kinase inhibition assay; format: biochemical
T1 construct: GST-full length GSK3a [SignalChem G08-10G]; purchased SignalChem G08-10G
Outline: (§1)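 GST-tagged full-length human kinase (1 nM), pre-incubated 30 min with compound, then reacted 100 min at ambient temperature at pH 7.5 with 200 nM biotinylated phospho-S645 glycogen synthase 631–650 peptide and ATP at 2 μM–1 mM. After EDTA quench, Tb-pSer641 antibody/streptavidin-d2 TR-FRET 665/615 ratio fitted for IC50.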

[2] = target: T2, GSK3b (GST-full length GSK3b) (Homo sapiens, UniProt P49841); assay: GSK3b TR-FRET kinase inhibition assay; format: biochemical
T2 construct: GST-full length GSK3b: [SignalChem G08-9G]; purchased SignalChem G08-9G
Outline: as §1

[3] = test system: MDR1-MDCK cell monolayers; assay: MDR1/MDCK permeability assay; format: in vitro ADME; conditions: Table 3
Excerpt: The MDR1/MDCK assay is run at WuXi and Absorption Systems. This assay is used to determine the blood-brain barrier (BBB) penetration potential of a test compound using MDR1-MDCK cell monolayers. Catalog number EA203.
• The percent recovery of the test compound from the Transwell® wells containing MDR1-MDCK cell monolayers • The apparent permeability (Papp) in both directions • The efflux ratio (Papp B to A)/(Papp A to B) • The blood-brain barrier penetration potential classification: • High when • Papp A to B≥3.0×10^−6 cm/s, and efflux<3.0 • Moderate when • Papp A to B≥3.0×10^−6 cm/s, and 10>efflux≥3.0 • Low when either • Papp A to B≥3.0×10^−6 cm/s, and […], or when • Papp A to B<[…].
• Test compound at 5 μM in HBSSg with maximum DMSO concentration not greater than 1%.
• Confluent monolayers of MDR1-MDCK cells, 7 to 11 days old.
• Receiver well with 1% BSA in modified Hanks buffer (HBSSg) • Apical and basolateral side at pH 7.4 • Dose two monolayers in each direction (N=2) • Dose apical side for (A to B) assessment • Dose basolateral side for (B to A) assessment • Sample both apical and basolateral sides at 120 minutes • Determine the concentrations of test compound using a generic LC-MS/MS method with a minimum 4 point calibration curve.
• The quality of the cell monolayer batch is verified using control compounds before monolayers are released for use • The quality of each monolayer used in the assay is verified by a TEER measurement and by calculating the Papp for a control compound.

[4] = 4 μM ATP, read-out: GSK3α TR-FRET 4 μM ATP GMean IC50
[5] = 2 μM ATP, read-out: GSK3β TR-FRET 2 μM ATP GMean IC50
[6] = 1 mM ATP, Table 3, read-out: GSK3b TR-FRET 1 mM ATP Average IC50
[7] = 1 mM ATP, Table 5, read-out: GSK3α TR-FRET 1 mM ATP Average IC50
[8] = 1 mM ATP, Table 5, read-out: GSK3β TR-FRET 1 mM ATP Average IC50
[9] = 1 mM ATP, Table 3, read-out: GSK3a TR-FRET 1 mM ATP Average IC50

T2 sequence (P49841 whole entry): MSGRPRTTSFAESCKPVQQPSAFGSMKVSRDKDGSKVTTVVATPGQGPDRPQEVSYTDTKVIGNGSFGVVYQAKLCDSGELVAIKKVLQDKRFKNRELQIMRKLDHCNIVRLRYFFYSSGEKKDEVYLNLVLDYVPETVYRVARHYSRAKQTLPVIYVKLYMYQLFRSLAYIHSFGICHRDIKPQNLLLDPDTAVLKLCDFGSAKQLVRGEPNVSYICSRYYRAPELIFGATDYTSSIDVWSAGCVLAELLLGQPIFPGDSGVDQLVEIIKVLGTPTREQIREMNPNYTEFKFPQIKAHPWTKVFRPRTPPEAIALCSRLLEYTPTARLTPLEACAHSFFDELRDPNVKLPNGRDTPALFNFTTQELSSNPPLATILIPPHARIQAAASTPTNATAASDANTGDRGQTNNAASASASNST
T1 sequence (P49840 whole entry): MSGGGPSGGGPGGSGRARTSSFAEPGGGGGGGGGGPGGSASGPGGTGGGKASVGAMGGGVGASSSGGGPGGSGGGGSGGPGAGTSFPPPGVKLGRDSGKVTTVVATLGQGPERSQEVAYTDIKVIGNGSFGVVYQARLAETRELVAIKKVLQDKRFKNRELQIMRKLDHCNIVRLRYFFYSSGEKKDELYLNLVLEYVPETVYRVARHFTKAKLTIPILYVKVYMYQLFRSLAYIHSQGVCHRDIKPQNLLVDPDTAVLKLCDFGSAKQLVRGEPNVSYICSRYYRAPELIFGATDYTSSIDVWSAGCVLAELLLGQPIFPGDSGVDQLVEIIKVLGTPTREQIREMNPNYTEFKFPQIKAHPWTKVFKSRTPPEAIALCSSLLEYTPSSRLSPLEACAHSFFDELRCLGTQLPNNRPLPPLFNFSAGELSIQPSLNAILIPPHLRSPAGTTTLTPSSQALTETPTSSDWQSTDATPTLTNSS

Compound	IC50 [1, 4] [nM]	IC50 [2, 5] [nM]	IC50 [1, 7] [nM]	IC50 [2, 8] [nM]	other results
CCc1cnc2c(c1)C(C)(c1ccccc1)C1=C(CC(C)(C)CC1=O)N2 (single isomer, unassigned) [Compound 113A]					IC50 ([1]; 100 μM ATP, read-out: GSK3a 100 μM ATP Average IC50): 1000 to 5000 nM; IC50 ([2]; 100 μM ATP, read-out: GSK3b 100 μM ATP Average IC50): 100 to 1000 nM; IC50 [2, 6]: 1000 to 5000 nM
CC1(C)CC(=O)C2=C(C1)Nc1ncc(C3CC3)c(C#N)c1C2(C)c1ccccc1 (single isomer, unassigned) [619B]			5000 to 20000	5000 to 20000	
CN(C)c1cnc2c(c1C#N)C(C)(c1ccccc1)C1=C(CC(C)(C)CC1=O)N2 (single isomer, unassigned) [624B]			> 20000	5000 to 20000	
CC1(C)CC2=C(C(=O)[C@@H]1F)[C@](C)(c1ccccc1)c1c(ncc(F)c1C#N)N2 (single isomer, unassigned) [Compound 616B]			100 to 1000	100 to 1000	
CC(C)Oc1cccc(C2(C)C3=C(CC(C)(C)CC3=O)Nc3ncc4c(cnn4C)c32)c1 (single isomer, unassigned) [645B]			5000 to 20000	1000 to 5000	
CC(C)(C)Cn1nccc1-c1cccc(C2(C)C3=C(CC(C)(C)CC3=O)Nc3ncc(F)cc32)c1 (single isomer, unassigned) [Compound 160A]					IC50 [1, 9]: 100 to 1000 nM; IC50 [2, 6]: 100 to 1000 nM
CC1(C)CC(=O)C2=C(C1)Nc1ncc(F)c(C#N)c1C2(C)c1ccccc1 (single isomer, unassigned) [Compound 121A]					IC50 [1, 9]: ≤ 100 nM; IC50 [2, 6]: ≤ 100 nM; MDCK Permeability (MDR1-MDCK); Mean; Papp(A-B) (10^−6 cm/s) ([3]; A to B): 22 10^−6 cm/s; MDCK Permeability (MDR1-MDCK); Mean; Papp(B-A) (10^−6 cm/s) ([3]; B to A): 63 10^−6 cm/s; MIDCK Permeability (MDR1-MDCK); Mean; P. Ratio(B-A/A-B) Efflux Ratio ([3]; Papp B-A/A-B): 2.9
CC(C)Oc1cccc(C2(C)C3=C(CC(C)(C)CC3=O)Nc3ncc(C(F)(F)F)cc32)c1 (single isomer, unassigned) [648B]			1000 to 5000	100 to 1000	

The next lines start with results.

IC50 [1, 4] [nM]	IC50 [2, 5] [nM]	IC50 [1, 7] [nM]	IC50 [2, 8] [nM]	Compound	other results
≤ 100	≤ 100			CCC1(c2cccc(-c3ccncc3OC)c2)C2=C(CC(C)(C)CC2=O)Nc2ncccc21 (single isomer, unassigned) [Compound 1028B]	
		100 to 1000	100 to 1000	CC1(C)CC(=O)C2=C(Nc3ncc(F)c(C#N)c3[C@@]2(C)c2ccccc2)[C@@H]1F (single isomer, unassigned) [Compound 617B]	
1000 to 5000	> 5000			CCC1(c2cccc(C(F)(F)F)c2)C2=C(CC(C)(C)CC2=O)Nc2ncccc21 (single isomer, unassigned) [Compound 1014A]	
≤ 100	≤ 100			CCC1(c2cccc(-c3cc(C)nn3C)c2)C2=C(CC(C)(C)CC2=O)Nc2ncc(F)cc21 (single isomer, unassigned) [Compound 1033B]	
> 5000	> 5000			CCC1(c2cccc(-c3ccncc3)c2)C2=C(CC(C)(C)CC2=O)Nc2ncccc21 (single isomer, unassigned) [Compound 1017B]	
